Columns and labels:
[1] = system: control red blood cells; assay: Osmotic fragility test in hypotonic saline, control red blood cells; conditions: for hemolysis induced before the osmotic test: blood incubation 25 hours, control red blood cells
[2] = system: control red blood cells with WT Gardos channels; assay: Vanadate-induced K+ loss and water loss in control red blood cells; assay type: cell-based, human
Experimental: Red blood cell cation content and volume measurements: Freshly drawn blood was washed 4 times at room temperature in medium containing in mM: NaCl 147, KCl 5, MgSO4 2, CaCl2 1, Hepes 10, buffered with NaOH pH 7.4 (320 mOsm). […] A few minutes before sampling time, 400 μl of cell suspension was taken to fill 3 nylon tubes that were centrifuged for 10 minutes at 4° C., 20,000. g at the exact sampling time. The supernatant was collected for extracellular ion content measurements. The pellet of red cells was extracted and immediately weighted. Then, dry weight was measured after overnight heating (80° C.). Water content was calculated with a correction of 3.64% corresponding to trapped medium between packed cells. Intracellular ions were extracted from dried pellets by overnight incubation at 4° C. in 5 ml milliRho water (Millipore). Na^+ and K^+ were measured by flame spectroscopy with a PFP7 Jenway. Statistics: Mann and Whitney test was used to compare control versus patient or control versus inhibitor in red blood cell experiments.

[3] = Sickle Cell disease, Ataga et al., 2011; cited from earlier work

SMILES	hemolysis induced before the osmotic test ([1]; Senicapoc 4 or 0.4 μM)	effect on osmotic resistance ([1]; Senicapoc 4 or 0.4 μM, blood stored 25 hours at 4° C., control)	inhibition at 0.4 µM ([2]; Homo sapiens, Erythrocyte, 1 h)	inhibition at 4 µM ([2]; Homo sapiens, Erythrocyte, 1 h)	toxicity in phase III study [3]	hemolysis induced before the osmotic test ([1]; TRAM-34 10 μM)	inhibition at 10 µM ([2]; Homo sapiens, Erythrocyte, 1 h, read-out: inhibition of K+ loss)	effect on K+ loss and cell water loss ([2]; TRAM-34 10 μM, 5 mM vanadate, red blood cells with WT Gardos channels)
NC(=O)C(c1ccccc1)(c1ccc(F)cc1)c1ccc(F)cc1 [Senicapoc, bis(4-fluorophenyl)phenyl acetamide]	not observed	no effect	84 ± 4%	95 ± 4%	non-toxic			
Clc1ccccc1C(c1ccccc1)(c1ccccc1)n1cccn1 [TRAM-34, 1-[(2-Chlorophenyl)diphenylmethyl]-1H-pyrazole]						strong hemolysis	97 ± 1%	able to reduce
